Values joined by “and” are separate entries in the source; they are usually repeats but may differ in a detail not shown here. Identical values can stand only once.
Columns and labels:
[1] = tested on: MDA-MB-231 cells; assay: Quantitative phase imaging (QPI) growth response, MDA-MB-231; assay type: cell-based; set-up: DoR QPI: scale not given here; ToR 20 μM: unit not given here
Text: (§1) In some embodiments, breast cancer cell lines are imaged, representing diverse clinical subtypes, summarized in Table 2 below, using a QPI microscope (FIG. 1A) based on differential phase contrast (DPC) microscopy and phase reconstruction via a QPI microscope system. DPC is used for image acquisition and phase reconstruction because DPC's flexible design may be customized for high throughput phase measurements. […] As illustrated in the embodiment of FIG. 1A, a QPI microscope system 100 conducts assays in a 96-well plate (e.g., a well-plate 105) with 6-point dose response curves and up to five therapies in triplicate including solvent controls, summarized in Table 4 below. As described below, in reference to FIG. 1A, a growth response of cells is measured noninvasively using QPI via a QPI microscope system 110 before being assayed using a CTG reader 115.
(§2) FIG. 1B illustrates a timeline plot 200 showing two plates (e.g., two, separate well-plates 105) set up in parallel to measure cell viability. With reference to FIG. 1B, two plates are set-up simultaneously for each experiment. A first plate 205 is incubated for 27 hours (h) post drug exposure prior to CTG analysis (3 h equilibration+24 h of imaging), which measures cell adenosine triphosphate (ATP) content as a surrogate for cell viability. A second plate 210 is imaged for 72 h after 3 h equilibration (e.g., 75 h) and followed by CTG. […] The imaging locations are imaged for 72 h, as shown by images 1700-1715 of FIG. 7.
(§3) In some embodiments, a dose-dependent change in growth, as indicated by a change in the rate of mass accumulation or loss, is a parameter that can be extracted from QPI dose-response data. […] Individual specific growth rate measurements are indicated by points in the distribution of the graph 1200 of FIG. 2A. Blue is indicative of the DMSO control and red is indicative of doxorubicin. The black outline is a kernel density function fit to the distribution of specific growth rates for each condition (e.g., *p<0.05, **p<0.01). In some embodiments, the average SGR of each condition is fit to a sigmoid dose-response curve using a Hill equation. For example, computed logistic fit parameters using a 4-parameter Hill model via the QPI microscope system 110 for all conditions are summarized in Tables 5-8 below. To determine if there is a response, as illustrated by FIG. 2B, the QPI microscope system 110 tests goodness of fit, adjusts for degrees of freedom using an F-test at significance p<0.01 by comparison to a flat line, as an indicator of no response. For cases with a better fit to the Hill equation, the 4-parameter Hill curve may be used by the QPI microscope system 110 to determine the EC50, a measure of sensitivity to therapy because it represents the effective concentration at which 50% of the cells respond to therapy, as illustrated by FIG. 10. […] A 4-parameter Hill curve is fit to each dose response plot to extract the depth of response and EC50 for each cell/drug pair. A flat line represents no response due to failure of the F-test to reject the null hypothesis that the logistic fit is indistinguishable from a flat line. […] Each color indicates a different drug or therapy used.

[2] = tested on: MCF-7 cells; assay: CellTiter-Glo (CTG) ATP viability assay, MCF-7; assay type: cell-based
Protocol: (§4) CTG (e.g., read by the CTG reader 115) is a cell viability assay that quantifies the amount of ATP present at the end of an experiment as an indicator of the number of live cells. The electronic controller 155 measures ATP content in each condition as a readout by a luminescent signal, which is normalized by the luminescence of the control (e.g., a control well) to determine cell viability relative to on-plate controls. In some embodiments, the CTG assay is performed by first removing 100 μL of media from each well on the well-plate 105, which is then replaced with an equal amount of CellTiter-Glo reagent (e.g., Promega, G7572). Assayed plates may be shaken at 500 RPM for 20 minutes and allowed to rest for 10 minutes. In some instances, 100 μL of volume from each well is transferred to a white 96-well plate (e.g., Perkin Elmer, 6005680). The electronic controller 155 collects luminescence data from each well using an Envision plate reader (e.g., Perkin Elmer) and normalized against the solvent control to measure ATP content. The electronic controller 155 fits a 4-parameter hill curve to the dose response to determine the EC50 and depth of response.

[3] = tested on: MCF-7 cells; assay: cells; settings: for Max Asymptote / Min Asymptote: MCF-7, 4-parameter Hill fit of mean SGR vs concentration, one line per replicate; for Hill Slope: MCF-7, Hill fit; for DoR QPI: depth of response; for ToR 20 μM: time of response at 20 μM
Text: as §1, §2, §3

[4] = tested on: BT-474 cells; assay: cells; settings: for ToR 20 μM: time of response at 20 μM; for Hill Slope: BT-474, Hill fit; for EC50: Homo sapiens
Text: as §1, §2, §3

[5] = tested on: BT-474 cells; assay: CellTiter-Glo (CTG) ATP viability assay, BT-474; assay type: cell-based; settings: for Min Asymptote: BT-474, Hill fit of luminescence normalized to solvent control, one line per replicate; for EC50: Homo sapiens
Protocol: as §4

[6] = tested on: primary tumor cells (Patient #1); assay: QPI on primary cells after two-week expansion, Patient #1; assay type: cell-based
Protocol: In some embodiments, the QPI microscope system 110 applies multiparametric QPI to primary cells from two clinical samples stored in cell bank at, for example, the Huntsman Cancer Institute plated after thawing from liquid nitrogen and CD45+ depleted to reduce the number of immune cells, as shown in FIG. 26.
For example, the primary cells are plated as a 2D monolayer in Clever's complete medium in a 96 well plate (e.g., the well-plate 105) and are allowed to acclimate to cell culture conditions for 18 h prior to dosing with treatments assigned to each patient by a physician. […] The image 3600 is a QPI image of primary cells from a direct from thaw patient derived sample. […] The graph 3610 is a histogram of cell mass used to computationally filter, using the electronic controller 155, for low mass cells (shown in red in the image 3600 and the graph 3605). By using a cutoff between the peaks at, for example, 72 pg, low mass cells can be isolated that are not growing and remove such cells from analysis. […] Using this cutoff, the electronic controller 155 measures the dose response for cells in each condition to determine the EC50 and DoR for each condition studied for the primary cells, as shown in the graph 3615. The graph 3615 is a dose response plot for primary cells treated with therapies assigned to the patient by a physician. […] In some embodiments, the electronic controller 155 determines a drug response in cells from patient derived samples. For example, the electronic controller 155 determines the drug response in therapy treatment samples from patient derived samples.
In some embodiments, both samples are expanded from primary cells in 2D culture using optimized ex vivo culture conditions for 2 weeks, changing media every 3 days to further purify the tumor cells, as shown in a workflow 3700 of FIG. 27.

[7] = 72 h QPI, MDA-MB-231, 4-parameter Hill fit of mean SGR vs concentration, one line per replicate
[8] = 72 h QPI, BT-474, 4-parameter Hill fit of mean SGR vs concentration, one line per replicate

N.N.O=C([O-])C1(C(=O)[O-])CCC1.[Pt+2] [Carboplatin]
Max Asymptote [1, 7]: 0.01609 and 0.02303 and 0.02092 | Min Asymptote [1, 7]: 0.02861 and 0.03045 and 0.02714 | growth rate and heterogeneity over time ([1]; MDA-MB-231, 20 μM): decrease in growth rate with little effect on heterogeneity relative to the control | growth rate and heterogeneity as concentration increases ([1]; MDA-MB-231, FIG. 22): decrease in growth rate and heterogencity simultaneously | EC50 ([1]; MDA-MB-231 cell line, QPI growth rate, read-out: EC50, QPI): 9100 nM | DoR QPI ([1]; MDA-MB-231 cell line, depth of response, QPI): 0.3 | ToR 20 μM ([1]; MDA-MB-231 cell line, time of response at 20 μM): 18.3 | Hill Slope ([2]; 72 h CTG, MCF-7, Hill fit): 3.126 and 5.114 | log10(EC50) ([2]; 72 h CTG, MCF-7, Hill fit): −1.201 and −1.172 | Min Asymptote ([2]; 72 h CTG, MCF-7, Hill fit of luminescence normalized to solvent control, one line per replicate): 0.5048 (2×) and 0.6498 | EC50 ([2]; MCF-7 cell line, CellTiter-Glo, read-out: EC50, CTG (converted)): 15500 nM | DoR CTG ([2]; MCF-7 cell line, depth of response, CellTiter-Glo): 0.4 | Max Asymptote ([3]; 72 h QPI): 0.007047 and 0.01142 | Min Asymptote ([3]; 72 h QPI): 0.01994 and 0.02292 | Hill Slope ([3]; 72 h QPI): 3.7715 and 2.34 | DoR QPI ([3]; MCF-7 cell line): 0.6 | ToR 20 μM ([3]; MCF-7 cell line): 18.1 | EC50 ([3]; read-out: EC50, QPI, MCF-7 cell line, QPI growth rate): 14.2 µM | ToR 20 μM ([4]; BT-474 cell line): 38.7

CS(=O)(=O)CCNCc1ccc(-c2ccc3ncnc(Nc4ccc(OCc5cccc(F)c5)c(Cl)c4)c3c2)o1 [Lapatinib]
Hill Slope ([5]; 24 h CTG, BT-474, Hill fit): 0.4575 | Min Asymptote ([5]; 24 h CTG): 0.2926 | Hill Slope ([5]; 72 h CTG, BT-474, Hill fit): 0.6736 and 1.021 | log10(EC50) ([5]; 72 h CTG, BT-474, Hill fit): 0.04318 | Min Asymptote ([5]; 72 h CTG): 0.3102 and 0.4062 (2×) | DoR CTG ([5]; BT-474 cell line, depth of response, CellTiter-Glo): 0.6 | EC50 ([5]; BT-474, 24 h, 24 h CTG, BT-474, Hill fit, read-out: log10(EC50) (converted)): 165000 nM | EC50 ([5]; BT-474, BT-474 cell line, CellTiter-Glo, read-out: EC50, CTG): 1700 nM | type of response (cytostatic/cytotoxic) [3]: cytostatic response | Max Asymptote ([3]; 24 h QPI): 0.02919 | Min Asymptote ([3]; 24 h QPI): 0.0206 | Hill Slope ([3]; 24 h QPI): 1.4871 | Max Asymptote ([3]; 72 h QPI): 0.01659 | Min Asymptote ([3]; 72 h QPI): 0.02661 | Hill Slope ([3]; 72 h QPI): 1.4826 | EC50 ([3]; Homo sapiens, MCF7, 24 h, read-out: log10(EC50), 24 h QPI, MCF-7, Hill fit (converted), EC50 in μM per Table 1): 1.92 µM | EC50 ([3]; Homo sapiens, MCF7, 72 h, read-out: log10(EC50), 72 h QPI, MCF-7, Hill fit (converted), EC50 in μM per Table 1): 1.8 µM | EC50 ([3]; Homo sapiens, MCF7, MCF-7, QPI): ~1.5 µM | EC50 ([3]; Homo sapiens, MCF7, read-out: EC50, QPI, MCF-7 cell line, QPI growth rate): 1.5 µM | DoR QPI ([3]; MCF-7 cell line): 0.4 | ToR 20 μM ([3]; MCF-7 cell line): 38.2 | type of response (cytostatic/cytotoxic) [4]: cytotoxic response | Max Asymptote ([4]; 24 h QPI, BT-474, 4-parameter Hill fit of mean SGR vs concentration, one line per replicate): 0.009114 and 0.01239 and 0.01012 | Hill Slope ([4]; 24 h QPI): 1.0728 and 1.0622 and 0.7683 | Max Asymptote [4, 8]: −0.005233 and −0.002968 and −0.002717 | Min Asymptote [4, 8]: 0.008681 and 0.009519 and 0.009646 | Hill Slope ([4]; 72 h QPI): 0.8265 and 1.1159 and 1.0735 | growth rate and heterogeneity as concentration increases ([4]; BT-474, FIG. 22): decrease in growth rate and heterogeneity | DoR QPI ([4]; BT-474 cell line, depth of response, QPI): 1.4 | ToR 20 μM ([4]; BT-474 cell line): −1.0616 | ToR faster than in MCF-7 ([4]; BT-474 vs MCF-7): 60 h | decrease in heterogeneity relative to MCF-7 ([4]; BT-474 vs MCF-7): 30% | EC50 ([4]; BT-474, BT-474, QPI): ~1500 nM | EC50 ([4]; BT-474, read-out: EC50, QPI, BT-474 cell line, QPI growth rate): 1600 nM | EC50 ([4]; BT-474, read-out: EC50, SD, BT-474 cell line, EC50 of the standard deviation): 1650 nM

C=C1C[C@@H]2CC[C@@]34C[C@H]5O[C@H]6[C@@H](O3)[C@H]3O[C@H](CC[C@@H]3O[C@H]6[C@H]5O4)CC(=O)C[C@@H]3[C@@H](OC)[C@@H](C[C@H](O)CN)O[C@H]3C[C@H]3O[C@@H](CC[C@@H]1O2)C[C@@H](C)C3=C [eribulin]
overall response relative to doxorubicin or gemcitabine ([6]; Patient #1, concentration just above the EC50, normalized mass over time): lesser overall response | DoR relative to the other therapies tested ([6]; Patient #1, dose response plots): lower DoR | growth rate after the first day ([6]; Patient #1, rest of the experiment): approximately 0.0012 h−1

Nc1ccn([C@@H]2O[C@H](CO)[C@@H](O)C2(F)F)c(=O)n1 [gemcitabine]
EC50 compared with eribulin ([6]; Patient #1): lower EC50 than eribulin

— patent US20250052985A1, “SYSTEM AND METHOD FOR QUANTITATIVE PHASE IMAGING FOR MULTI-PARAMETRIC SCREENING OF TUMOR THERAPY RESPONSE” (UNIVERSITY OF UTAH RESEARCH FOUNDATION, priority 2023, published 2025)
